US20040224995A1 (University of North Texas Health Science Center at Fort …, priority 2003, published 2004)

Tests used:
[1] = test system: PPARγ; conditions: Kliewer et al., 1995; cited from earlier work
[2] = test system: HT-22 cells; assay: HT-22 cell viability during glutamate exposure (calcein AM assay); format: cell-based; conditions: for neuroprotection after withdrawal of compound-containing medium: 24 h preincubation, medium washed away, then glutamate (15 mM); for concentration at which toxicity was observed: HT-22, glutamate experiments; for neuroprotection against glutamate insult (cell viability): HT-22, 24 h preincubation before glutamate
Description: Although not wanting to be bound by theory, the toxicity of glutamate in HT-22 (32) and C6 glioma (33) cell lines is mediated through oxidative stress. HT-22 cells lack ionotropic N-methyl-D-aspartate (“NMDA”) glutamate receptors, and the glutamate-induced cell death appears to occur via a slow onset oxidative stress (32,34,35). Glutamate blocks cystine uptake by inhibiting the glutamate/cystine antiporter in both HT-22 (32) and C6 glioma (33) cell lines. Since cysteine is required for glutathione (“GSH”) synthesis, the intracellular concentration of GSH decreases as a consequence. BSO depletes intracellular glutathione by inhibiting γ-glutamylcysteine synthetase, the rate-limiting enzyme in glutathione synthesis (33). […] Troglitazone further protected HT-22 (FIG. 14) and RGC-5 (FIG. 15) against BSO. The cell viability was taken at time points around about 14 to 24 hours post-insult time. In some of the experiments, the viability of cells was determined using 2.5 μM calcein AM assay in phosphate-buffered saline (PBS 1×). After 25 minutes of incubation, live cells were distinguished by the presence of intracellular esterase activity, which cleaves the calcein AM dye, producing a bright green fluorescence, as shown in FIG. 22. Viability was measured in Relative Fluorescent Units (“RFU”), and expressed as percentage of vehicle-treated control values.
15d-PGJ2 and two TZD's (e.g. troglitazone and ciglitazone) were tested for their ability to protect HT-22 cells against glutamate toxicity. […] HT-22 cells were treated with 15-dPGJ2 twenty-four hours prior to a glutamate insult (15 mM). […] The data of FIG. 24 was quantified using the calcein AM assay (see FIG. 22). Results are expressed in % survival of the control (non-glutamate-treated) cultures. DMSO received the vehicle only for 15d-PGJ2. Shown are mean±SEM for 6. The asterisk (“*”) indicates p<0.05 vs. respective control.
In order to conduct these experiments, the following compounds: PGA1; PGA2; PGJ2; Δ^12PGJ2; and 15d-PGJ2 were ordered from Biomol, Plymouth Meeting, Pa. HT-22, an immortalized mouse hippocampal cell line, C6 rat glioma, RGC-5 retinal ganglion cells were used. Cells were grown to confluence in DMEM media, and supplemented with 10% charcoal/dextran-treated fetal bovine serum (“FBS”), and […] gentamycin at 37° C. under 95% air, 5% CO2. HT-22, C6, and RGC-5 cells were plated at a density of 50,000, 35,000, and 10,000 cells/ml, respectively, in 96-well plates. Wells were pre-treated with cyclopentenone PGs at various times prior to being subjected to glutamate, hydrogen peroxide (H2O2), or BSO insults.
The WY-14643, Ciglitazone, Troglitazone, 9-cis retinoic acid, and 15d-PGJ2 compounds were purchased from Biomol (Plymouth Meeting, Pa.). L-165041 and L-783483 were kindly provided by Merck Laboratories. The cell lines used were HT-22, an immortalized mouse hippocampal cell line, and SK—N—SH, a human neuroblastoma cell line. The HT-22 cells were obtained from David Schubert (Salk Institute, San Diego, Calif.). The HT-22 line was originally selected from HT-4 cells based on glutamate sensitivity. HT-4 cells were immortalized from primary hippocampal neurons using a temperature-sensitive SV-40 T antigen (Morimoto and Koshland, 1990). SK—N—SH were obtained from ATCC (Manassas, Va.). HT-22 and SK—N—SH cells were grown to confluence in DMEM and RPMI-1640 media, respectively, and supplemented with 10% charcoal/dextran-treated fetal bovine serum (FBS), and 5 mg/ml gentamycin at 37° C. under 95% air, 5% CO2. HT-22 cells were plated at a density of 50,000 cells/ml (5,000 cells/well), and SK—N—SH were plated at a density of 120,000 to 150,000 cells/ml (12,000 to 15,000 cells/well) in 96-well plates. In most studies, wells were pre-treated with PPAR ligands over a wide dose range at various times prior to being subjected to either glutamate, hydrogen peroxide (H2O2), or serum deprivation insults. In some studies, the insults were applied prior to the addition of the PPAR ligand. […]

[3] = test system: RGC-5 cells; assay: RGC-5 cell viability during BSO exposure; format: cell-based
Experimental: The in vitro model used for oxidative cell death was based upon glutamate, hydrogen peroxide, and buthionine sulfoximine (“BSO”) administration to HT-22 mouse hippocampal, C6 rat glioma, and RGC-5 retinal ganglion cell lines. The ease that the above cell lines are cultured is well known in the art of cell culture. Additionally, these cell lines are suitable for screening a various number of compounds described in the present invention.
Although not wanting to be bound by theory, the toxicity of glutamate in HT-22 (32) and C6 glioma (33) cell lines is mediated through oxidative stress. HT-22 cells lack ionotropic N-methyl-D-aspartate (“NMDA”) glutamate receptors, and the glutamate-induced cell death appears to occur via a slow onset oxidative stress (32,34,35). Glutamate blocks cystine uptake by inhibiting the glutamate/cystine antiporter in both HT-22 (32) and C6 glioma (33) cell lines. […] In some of the experiments, the viability of cells was determined using 2.5 μM calcein AM assay in phosphate-buffered saline (PBS 1×). After 25 minutes of incubation, live cells were distinguished by the presence of intracellular esterase activity, which cleaves the calcein AM dye, producing a bright green fluorescence, as shown in FIG. 22. Viability was measured in Relative Fluorescent Units (“RFU”), and expressed as percentage of vehicle-treated control values. […]

Row | Structure (SMILES) | EC50 [1] [µM] | neuroprotection after withdrawal of compound-containing medium [2] | concentration at which toxicity was observed [2] [µM] | neuroprotection against glutamate insult (cell viability) [2] | neuroprotective effect of prostaglandins against glutamate toxicity ([2]; added 24 h before glutamate (15 mM), viability 15 h later) | neuroprotection when added with or after glutamate ([2]; added at same time as glutamate or up to ten hours thereafter) | exposure time required to achieve significant neuroprotection ([2]; preincubation before glutamate (15 mM), 5 μM) | protection versus time of administration prior to glutamate insult ([2]; administered 0 to 10 hours prior to insult) | time post glutamate insult up to which neuroprotective effects remained unaltered ([2]; post-treatment 0 to 10 hours after glutamate) | protection at 8 and 10 hours post glutamate insult ([2]; post-treatment, extent of protection decreased) | protection against BSO [3]
1 | CCCCC/C=C/C=C1/C(=O)C=C[C@@H]1C/C=C\CCCC(=O)O [15d-PGJ2, 15-deoxy-Δ^12,14-PGJ2] | 7 | protected in a dose dependent manner | ≥ 10 | dose-dependent protection | potent neuroprotective effect | failed to display any neuroprotective effects | four to six | – | – | – | –
2 | Cc1c(C)c2c(c(C)c1O)CCC(C)(COc1ccc(CC3SC(=O)NC3=O)cc1)O2 (centres unmarked) [troglitazone] | – | loss of neuroprotection | ≥ 20 | dose-dependent protection | – | – | – | equally protective | up to 6 hours | still significantly protected | protected
